Laboratory results from patent US8969335B2, “Benzonitrile derivatives as kinase inhibitors” (MERCK PATENT GmbH, priority 2011, dated 2015).

Assays:
IKKε = IKKε (Homo sapiens (Human), UniProt Q14164); test: IKKε kinase assay (384-well flashplate assay); format: biochemical; conditions: 1 nM IKKε, 10 μM ATP, 30° C., 2 hours; read-out: IKKε enzyme assay IC50
Procedure, shortened: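 Recombinant IKKε (1 nM) phosphorylates biotinylated IκBα(19-42) peptide (800 nM) with 10 μM ATP spiked with ^33P-ATP, 2 h at 30° C in MOPS buffer pH 7.5. Stopped with EDTA, captured on flashplate, radioactivity counted; nonspecific signal defined with 3 μM BX-795; IC50 derived.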

[1] = target: TANK binding kinase (TBK1) (Homo sapiens (Human), UniProt Q9UHD2); test: TBK1 enzyme assay (384-well flashplate kinase assay); format: biochemical; conditions: 0.6 nM TBK1, 10 μM ATP, 30° C., 120 min
Chain of TANK binding kinase (TBK1) (Q9UHD2 whole entry): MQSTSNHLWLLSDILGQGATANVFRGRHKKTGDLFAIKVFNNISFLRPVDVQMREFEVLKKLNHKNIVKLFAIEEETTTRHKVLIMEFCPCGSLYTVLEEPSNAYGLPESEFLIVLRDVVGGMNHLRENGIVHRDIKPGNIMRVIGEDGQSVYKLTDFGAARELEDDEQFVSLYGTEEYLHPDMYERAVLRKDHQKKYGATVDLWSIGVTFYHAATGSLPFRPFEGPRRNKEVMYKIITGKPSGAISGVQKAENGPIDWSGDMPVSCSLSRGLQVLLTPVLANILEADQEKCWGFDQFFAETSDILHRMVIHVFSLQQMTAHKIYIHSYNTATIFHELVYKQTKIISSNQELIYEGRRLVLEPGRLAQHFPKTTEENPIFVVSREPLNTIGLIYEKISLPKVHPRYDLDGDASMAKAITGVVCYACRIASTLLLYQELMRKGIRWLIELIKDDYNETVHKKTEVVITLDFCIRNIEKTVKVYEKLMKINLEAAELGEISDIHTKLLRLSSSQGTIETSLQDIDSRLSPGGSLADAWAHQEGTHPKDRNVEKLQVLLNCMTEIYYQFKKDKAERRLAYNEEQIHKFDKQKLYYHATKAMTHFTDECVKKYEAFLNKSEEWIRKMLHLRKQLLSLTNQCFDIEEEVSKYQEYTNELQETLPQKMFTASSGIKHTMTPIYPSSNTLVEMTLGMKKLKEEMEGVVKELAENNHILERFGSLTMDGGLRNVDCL

[2] = test system: TBK1 + IKKε (phospho-IRF3 @ Ser 386, MDA-MB-468 cells); test: TBK1 + IKKε cell assay: dose response inhibition of phospho-IRF3 @ Ser 386 in MDA-MB-468 cells; format: cell-based; conditions: Homo sapiens, poly(I:C) stimulation, nuclear phospho-IRF3, read-out: TBK1 + IKKε cell assay IC50

Chain of IKKε (Q14164 whole entry): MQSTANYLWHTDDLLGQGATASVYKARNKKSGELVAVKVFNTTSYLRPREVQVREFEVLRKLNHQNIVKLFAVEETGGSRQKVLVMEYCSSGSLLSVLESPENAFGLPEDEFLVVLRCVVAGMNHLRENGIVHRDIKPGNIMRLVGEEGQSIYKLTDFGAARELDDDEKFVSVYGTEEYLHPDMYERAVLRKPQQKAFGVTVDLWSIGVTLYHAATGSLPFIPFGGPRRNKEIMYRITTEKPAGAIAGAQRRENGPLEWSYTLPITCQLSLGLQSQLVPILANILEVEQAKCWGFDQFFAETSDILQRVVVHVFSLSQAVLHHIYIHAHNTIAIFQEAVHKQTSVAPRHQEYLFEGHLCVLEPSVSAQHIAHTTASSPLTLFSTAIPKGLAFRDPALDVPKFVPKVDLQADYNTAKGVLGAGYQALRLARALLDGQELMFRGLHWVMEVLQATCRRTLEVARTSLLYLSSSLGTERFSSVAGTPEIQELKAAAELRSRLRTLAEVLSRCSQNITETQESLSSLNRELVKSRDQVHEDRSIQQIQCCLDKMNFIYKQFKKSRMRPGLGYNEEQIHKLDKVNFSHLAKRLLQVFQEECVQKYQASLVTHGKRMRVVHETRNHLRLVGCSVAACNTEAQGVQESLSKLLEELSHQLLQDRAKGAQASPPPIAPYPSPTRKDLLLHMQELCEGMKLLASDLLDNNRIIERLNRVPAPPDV

IC50 (IKKε) [µM] | IC50 [1] [µM] | IC50 [2] [µM] | Structure (SMILES)
0.098 | 0.088 | 1.3 | N#Cc1cc(-c2ccnc(Nc3ccc(N4CCOCC4)nn3)c2)ccc1OC1CCOCC1 [Compound A90, 5-[2-(6-morpholin-4-ylpyridazin-3-ylamino)pyridin-4-yl]-2-(tetrahydropyran-4-yloxy)benzonitrile]
0.008 | 0.006 | 0.32 | N#Cc1cc(-c2ccnc(Nc3cnc(CO)cn3)c2)ccc1OC1CCOCC1 [Compound A99, 5-[2-(5-hydroxymethylpyrazin-2-ylamino)pyridin-4-yl]-2-(tetrahydropyran-4-yloxy)benzonitrile]
0.006 | 0.021 | 2.4 | N#Cc1cc(-c2ccnc(Nc3ccc(C4CCNCC4)nn3)c2)ccc1OC1CCOCC1 [Compound A71, 5-[2-(6-piperidin-4-ylpyridazin-3-ylamino)pyridin-4-yl]-2-(tetrahydropyran-4-yloxy)benzonitrile]

More lines, now with the values behind:

Structure (SMILES) | IC50 (IKKε) [µM] | IC50 [1] [µM] | IC50 [2] [µM]
N#Cc1cc(-c2ccnc(Nc3cnn(CCO)c3)n2)ccc1OCC1CCC1 [Compound A94, 2-cyclobutylmethoxy-5-{2-[1-(2-hydroxyethyl)-1H-pyrazol-4-ylamino]pyrimidin-4-yl}benzonitrile] | 0.018 | 0.014 | 0.98
CC(C)(C)c1cc(Nc2cc(-c3ccc(OC4CCOCC4)c(C#N)c3)ccn2)n[nH]1 [Compound A10, 5-[2-(5-tert-Butyl-1H-pyrazol-3-ylamino)pyridin-4-yl]-2-(tetrahydropyran-4-yloxy)benzonitrile] | 0.043 | 0.021 | 1.2
COCCCn1cc(Nc2cc(-c3ccc(OC4CCOCC4)c(C#N)c3)ccn2)cn1 [Compound A23, 5-{2-[1-(3-Methoxypropyl)-1H-pyrazol-4-ylamino]pyridin-4-yl}-2-(tetrahydropyran-4-yloxy)benzonitrile] | 0.16 | 0.12 | 7.8
N#Cc1cc(-c2ccnc(Nc3cnn(CCN4CCOCC4)c3)c2)ccc1OC1CCOCC1 [Compound A22, 5-{2-[1-(2-Morpholin-4-ylethyl)-1H-pyrazol-4-ylamino]pyridin-4-yl}-2-(tetrahydropyran-4-yloxy)benzonitrile] | 0.15 | 0.1 | 9.6
